# Source: patent US11142527B2, “Dihydropyrimidine compounds and uses thereof in medicine” (SUNSHINE LAKE PHARMA CO., LTD., priority 2017, dated 2021)
# Test system: HBV
# Experiment: Test of anti HBV activity in vitro (viral DNA by qPCR)
# Format: cell-based
# Settings: Hepatitis B virus; HepG2.2.15 cells, viral DNA in cell culture supernatant by qPCR; read-out: EC50 values of the compound of the invention on viral replication
# Method: Test 1: Test Method of Calculating Anti HBV EC50
# HBV Cell Line and Culture Conditions
# HepG2.2.15 (SELLS, PNAS, 1987 and SELLS, JV, 1988) chromosomes have an integrated complete HBV genome, and stably express viral RNA and viral protein. HepG2.2.15 cells can secrete mature HBV particles, HBsAg and HBeAg, to medium. HepG2.2.15 cells were cultured in DMEM containing 10% fetal bovine serum, 100 U/mL penicillin, 100 U/mL streptomycin, 1% non essential amino acid, 1 mM sodium pyruvate and 300 μg/mL G418.
# Viral particles DNA secreted from HepG2.2.15 cells can be quantified by qPCR, and the effect of the compound on viral replication can be detected.
# Test of Anti HBV Activity In Vitro
# 8000 HepG 2.2.15 cells per well were seeded into a 96-well plate, the plate was cultured at 37° C. and 5% CO2 for 3 days till the cells grew to full wells. Old liquid medium can be removed and replaced with new medium (200 μL) on day 0.
# Formulating the compound and treating the cells in the experiment of anti virus: the compound was dissolved in DMSO to a concentration of 30 mM, and then the compound solution was diluted with DMSO to a concentration of 800 μM, and then eight dilutions at 4 fold were performed, the highest concentration is 800 μM. The serial diluted compound was added to the above plate at 1 μL per well, the highest final concentration in the experiment is 4 μM (200 fold dilution). TDF (tenofovir dipiroxil fumarate, Selleck, Cat S1400) has a highest concentration of 4 μM as a positive control. 1 μL of DMSO was added in to the […] at a final concentration of 0.5%, TDF was added in to the […] at a final concentration of 1 μM.
# Detection of Viral Genomic DNA by aPCR
# Primer: HBV-For-202, […]; HBV-Rev-315, […]. Copies of virus can be calculated using a standard curve plotted by using plasmid containing HBV genome and using SYBR Premix Ex Taq II—Takara DRR081S kit and 1 μL cell culture supernatant as a template. EC50 values of the compound on viral replication were calculated by a four parametric nonlinear regression model using Graphpad Prism 5 software to manage concentration—viral copy number.
row,SMILES,EC50
1,"COC(=O)C1=C(CN2CCN3C(=O)N(c4ccc(-c5ccc(C(=O)O)cc5F)cc4)C[C@@H]3C2)NC(c2nccs2)=N[C@H]1c1ccc(F)cc1Cl [Example 115, 4′-((S)-7-(((R)-6-(2-chloro-4-fluorophenyl)-5-(methoxycarbonyl)-2-(thiazol-2-yl)-3,6-dihydropyrimidin-4-yl)methyl)-3-oxohexahydroimidazo[1,5-a]pyrazin-2(3H)-yl)-2-fluoro-[1,1′-biphenyl]-4-carboxylic acid]",17.2 nM
2,"COC(=O)C1=C(CN2CCN3C(=O)N(c4nc(-c5ccc(C(=O)O)cc5)cs4)C[C@@H]3C2)NC(c2nccs2)=N[C@H]1c1ccc(F)cc1Cl [Example 15, 4-(2-((S)-7-(((R)-6-(2-chloro-4-fluorophenyl)-5-(methoxycarbonyl)-2-(thiazol-2-yl)-3,6-dihydropyrimidin-4-yl)methyl)-3-oxohexahydroimidazo[1,5-a]pyrazin-2(3H)-yl)thiazol-4-yl)benzoic acid]",10.8 nM
3,"COC(=O)C1=C(CN2CCN3C(=O)N(c4ccc(Oc5cccc(C(=O)O)c5)cn4)C[C@@H]3C2)NC(c2nccs2)=N[C@H]1c1ccc(F)cc1Cl [Example 16, 3-((6-((S)-7-(((R)-6-(2-chloro-4-fluorophenyl)-5-(methoxycarbonyl)-2-(thiazol-2-yl)-3,6-dihydropyrimidin-4-yl)methyl)-3-oxohexahydroimidazo[1,5-a]pyrazin-2(3H)-yl)pyridin-3-yl)oxy)benzoic acid]",12 nM
4,"COC(=O)C1=C(CN2CCN3C(=O)N(c4ccc(Oc5ccc(C(=O)O)cc5)cc4)C[C@@H]3C2)NC(c2nccs2)=N[C@H]1c1ccc(F)cc1Cl [Example 6, 4-(4-((S)-7-(((R)-6-(2-chloro-4-fluorophenyl)-5-(methoxycarbonyl)-2-(thiazol-2-yl)-3,6-dihydropyrimidin-4-yl)methyl)-3-oxohexahydroimidazo[1,5-a]pyrazin-2(3H)-yl)phenoxy) benzoic acid]",14 nM
5,"COC(=O)C1=C(CN2CCN3C(=O)N(c4cc(F)cc(N5CCO[C@H](CCC(=O)O)C5)c4)C[C@@H]3C2)NC(c2nccs2)=N[C@H]1c1ccc(F)cc1Cl [Example 131, 3-((R)-4-(3-((S)-7-(((R)-6-(2-chloro-4-fluorophenyl)-5-(methoxycarbonyl)-2-(thiazol-2-yl)-3,6-dihydropyrimidin-4-yl)methyl)-3-oxohexahydroimidazo[1,5-a]pyrazin-2(3H)-yl)5-fluorophenyl)morpholin-2-yl)propanoic acid]",8.6 nM
6,"COC(=O)C1=C(CN2CCN3C(=O)N(c4ccc(N5CCOC(CC(=O)O)C5)cc4)C[C@@H]3C2)NC(c2nccs2)=N[C@H]1c1ccc(F)cc1Cl (stereo partly drawn) [Example 76, 2-(4-(4-((S)-7-(((R)-6-(2-chloro-4-fluorophenyl)-5-(methoxycarbonyl)-2-(thiazol-2-yl)-3,6-dihydropyrimidin-4-yl)methyl)-3-oxohexahydroimidazo[1,5-a]pyrazin-2(3H)-yl)phenyl)morpholin-2-yl)acetic acid]",5.4 nM
7,"COC(=O)C1=C(CN2CCN3C(=O)N(c4ccc(-c5ccc(C(=O)O)cc5F)nc4)C[C@@H]3C2)NC(c2nccs2)=N[C@H]1c1ccc(F)cc1Cl [Example 124, 4-(5-((S)-7-(((R)-6-(2-chloro-4-fluorophenyl)-5-(methoxycarbonyl)-2-(thiazol-2-yl)-3,6-dihydropyrimidin-4-yl)methyl)-3-oxohexahydroimidazo[1,5-a]pyrazin-2(3H)-yl)pyridin-2-yl)-3-fluorobenzoic acid]",47.4 nM
8,"COC(=O)C1=C(CN2CCN3C(=O)N(c4ccc(N5CCC(C(=O)O)CC5)cc4)C[C@@H]3C2)NC(c2nccs2)=N[C@H]1c1ccc(F)cc1Cl [Example 21, 1-(4-((S)-7-(((R)-6-(2-chloro-4-fluorophenyl)-5-(methoxycarbonyl)-2-(thiazol-2-yl)-3,6-dihydropyrimidin-4-yl)methyl)-3-oxohexahydroimidazo[1,5-a]pyrazin-2(3H)-yl)phenyl) piperidine-4-carboxylic acid]",5 nM
9,"COC(=O)C1=C(CN2CCN3C(=O)N(c4ccc(-c5ccc(C(=O)O)c(F)c5)cc4F)C[C@@H]3C2)NC(c2nccs2)=N[C@H]1c1ccc(F)cc1Cl [Example 121, 4′-((S)-7-(((R)-6-(2-chloro-4-fluorophenyl)-5-(methoxycarbonyl)-2-(thiazol-2-yl)-3,6-dihydropyrimidin-4-yl)methyl)-3-oxohexahydroimidazo[1,5-a]pyrazin-2(3H)-yl)-3,3′-difluoro-[1,1′-biphenyl]-4-carboxylic acid]",36.4 nM
10,"COC(=O)C1=C(CN2CCN3C(=O)N(c4ccc(C5(C(=O)O)CCC5)cc4)C[C@@H]3C2)NC(c2nccs2)=N[C@H]1c1ccc(F)cc1Cl [Example 28, 1-(4-((S)-7-(((R)-6-(2-chloro-4-fluorophenyl)-5-(methoxycarbonyl)-2-(thiazol-2-yl)-3,6-dihydropyrimidin-4-yl)methyl)-3-oxohexahydroimidazo[1,5-a]pyrazin-2(3H)-yl)phenyl)cyclobutane carboxylic acid]",4 nM
11,"COC(=O)C1=C(CN2CCN3C(=O)N(C(C)(C)c4ccc(-c5ccc(C(=O)O)cc5)cc4)C[C@@H]3C2)NC(c2nccs2)=N[C@H]1c1ccc(F)cc1Cl (stereo in doubt) [Example 11, 4′-(2-((S)-7-(((R)-6-(2-chloro-4-fluorophenyl)-5-(methoxycarbonyl)-2-(thiazol-2-yl)-3,6-dihydropyrimidin-4-yl)methyl)-3-oxohexahydroimidazo[1,5-a]pyrazin-2(3H)-yl)prop-2-yl)-[1,1′-diphenyl]-4-carboxylic acid]",32.5 nM
12,"COC(=O)C1=C(CN2CCN3C(=O)N(CC#Cc4ccc(C(=O)O)cc4OC)C[C@@H]3C2)NC(c2nccs2)=N[C@H]1c1ccc(F)cc1Cl [Example 53, 4-(3-((S)-7-(((R)-6-(2-chloro-4-fluorophenyl)-5-(methoxycarbonyl)-2-(thiazol-2-yl)-3,6-dihydropyrimidin-4-yl)methyl)-3-oxohexahydroimidazo[1,5-a]pyrazin-2(3H)-yl)prop-1-yn-1-yl)-3-methoxybenzoic acid]",34.1 nM
13,"CCc1c[nH]c(-c2ccc(N3C[C@@H]4CN(CC5=C(C(=O)OC)[C@H](c6ccc(F)cc6Cl)N=C(c6nccs6)N5)CCN4C3=O)cc2)n1 [Example 109, (R)-methyl 4-(2-chloro-4-fluorophenyl)-6-(((S)-2-(4-(4-ethyl-1H-imidazol-2-yl)phenyl)-3-oxohexahydroimidazo[1,5-a]pyrazin-7(1H)-yl)methyl)-2-(thiazol-2-yl)-1,4-dihydropyrimidine-5-carboxylate]",12.4 nM
14,"COC(=O)C1=C(CN2CCN3C(=O)N(c4ccc(C5(C(=O)O)CCCCC5)cc4)C[C@@H]3C2)NC(c2nccs2)=N[C@H]1c1ccc(F)cc1Cl [Example 30, 1-(4-((S)-7-(((R)-6-(2-chloro-4-fluorophenyl)-5-(methoxycarbonyl)-2-(thiazol-2-yl)-3,6-dihydropyrimidin-4-yl)methyl)-3-oxohexahydroimidazo[1,5-a]pyrazin-2(3H)-yl)phenyl) cyclohexanecarboxylic acid]",9 nM
15,"COC(=O)C1=C(CN2CCN3C(=O)N(Cc4ccc(-c5ccc(C(=O)O)cc5)cc4)C[C@@H]3C2)NC(c2nccs2)=N[C@H]1c1ccc(F)cc1Cl [Example 10, 4′-(((S)-7-(((R)-6-(2-chloro-4-fluorophenyl)-5-(methoxycarbonyl)-2-(thiazol-2-yl)-3,6-dihydroprimidin-4-yl)methyl)-3-oxohexahydroimidazo[1,5-a]pyrazin-2(3H)-yl)methyl)-[1, 1′-diphenyl]-4-carboxylic acid]",19.9 nM
